In patent US20080214563A1, “Benzimidazole Thiophene Compounds As Plk Modulators” (priority 2005, published 2008):
pIC50: −log10 of the molar value.

What was measured:
[1] = tested on: HCT-116; test: Cell-Titer Glo Cell Growth Inhibition Assay, HCT116; format: cell-based; conditions: Homo sapiens, CellTiter-Glo, 72 h, read-out: CTG HCT116 IC50
Procedure, shortened: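 Human tumour cells in RPMI1640 + 10% FBS, plated at 500 cells/well, rested overnight, then given two-fold compound dilutions (0.15% DMSO) for 72 h at 37° C, 5% CO2. CellTiter-Glo luminescence read against a day-0 plate; IC50 from 4- or 6-parameter fit after no-cell background subtraction.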

[2] = tested on: Colo 205; test: Cell-Titer Glo Cell Growth Inhibition Assay, COLO205; format: cell-based; conditions: Homo sapiens, CellTiter-Glo, 72 h, read-out: CTG COLO205 IC50
Protocol: (§1) A549-L (human lung), BT474 (human breast), Colo 205 (human colon), H1299 (human lung), Hela (human cervix), HCT-116 (human colon), HN5 (human head and neck), HT29 (human colon), LNCap (human prostate), MCF7 (human breast), MDA-MB468 (human breast), MX-1 (human breast), RPMI 8226 (human peripheral blood), SKOV3 (human ovary) and P388 (murine leukemia) cell lines were cultured in RPMI1640 containing 10% fetal bovine serum at 37° C. in a 5% CO2 incubator. Cell lines were split into T75 flasks (Falcon #353136) two to three days prior to assay set up at density which yields approximately 70-80% confluency at time of harvest for assay. Cells were harvested using 0.25% trypsin with EDTA (Glibco/Invitrogen #25200-056), Cell counts were performed on cell suspensions using Trypan Blue exclusion staining, cells were then plated in 105 uL of culture media per well at the following densities in 96 well Costar #3916 black flat bottom plates: All human cell lines were plated at 500 cells/well. P388 were plated at 250 cells/well. All plates were placed at 5% CO2 37° C. overnight and then test compounds were added the following day. One plate of each cell type is treated with CellTiter-Glo (Promega #G7573) for a day 0 proliferation measurement and read as described below. The test compounds are prepared in clear U bottom polypropylene 96 well plates (Falcon #35-1190 with consecutive two fold dilutions. 9 uL of these dilutions was added into each well of the cell plates. The final concentration of DMSO in all wells is 0.15%. Cells were incubated at 37° C., 5% CO2 for 72 h. Following 72 h of incubation with compounds each plate was developed and read. CellTiter-Glo reagent was added to assay plates using a volume equivalent to the cell culture volume in the wells. Plates were shaken for approximately two minutes and incubated at room temperature for approximately 15 min and the chemiluminescent signal is read on the Victor V or Envison 2100 reader. […] Concentration of compound that inhibited 50% of cell growth (IC50) was analysis by 4 or 6 parameter fit of data using XLfit, value of no cell addition was subtracted from all samples for background.

[3] = tested on: MX-1; test: Methylene Blue Cell Growth Inhibition Assay, MX-1; format: cell-based; conditions: Homo sapiens, MX1, 72 h, read-out: MEB MX-1 IC50
[4] = tested on: A549-L; test: Cell-Titer Glo Cell Growth Inhibition Assay, A549-L; format: cell-based; conditions: Homo sapiens, CellTiter-Glo, 72 h, read-out: CTG A549-L IC50
Protocol: as §1

[5] = tested on: P388; test: Cell-Titer Glo Cell Growth Inhibition Assay, P388; format: cell-based, murine; conditions: Mus musculus, CellTiter-Glo, 72 h, read-out: CTG P388 IC50
Protocol: as §1

[6] = tested on: A549; test: Methylene Blue Cell Growth Inhibition Assay, A549; format: cell-based; conditions: Homo sapiens, 72 h, read-out: MEB A549 IC50
Protocol: (§2) Normal human foreskin fibroblasts (HFF), human colon (HCT116, RKO), lung (H460, A549) and breast (MCF7) tumor cell lines were cultured in high glucose DMEM (Life Technologies) containing 10% fetal bovine serum (FBS) at 37° C. in a humidified 5% CO2, 95% air incubator. Cells were harvested using trypsin/EDTA, counted using a haemocytometer, and plated in 100 μL of culture media per well, at the following densities, in a 96-well tissue culture plate (Falcon 3075): HFF 5,000 cells/well, HCT116 3,000 cells/well, RKO 2,500 cells/well, H460 2,500 cells/well, A549 5,000 cells/well, MCF7 4,000 cells/well. The next day, compounds were diluted in low glucose DMEM containing 100 μg/mL gentamicin, at twice the final required concentration, from 10 mM stock solutions in DMSO. 100 μL/well of these dilutions were added to the 100 μL of media currently in the assay plates. Medium containing 0.6% DMSO was added to control wells. The final concentration of DMSO in all wells was 0.3%. Cells were incubated at 37° C., 5% CO2 for 72 h. Medium was removed by aspiration. Cell biomass was estimated by staining cells with 80 μL per well methylene blue (Sigma M9140, 0.5% in 50:50 ethanol:water), and incubation at room temperature for 30-60 min. Stain was removed by aspiration and the plates rinsed by immersion in water, then air-dried. To release stain from the cells, 100 μL of solubilization solution was added (1% N-lauroyl sarcosine, Sodium salt, Sigma L5125, in PBS), and plates were shaken gently for about 30 min. Optical density at 620 nm was measured on a microplate reader. Percent inhibition of cell growth was calculated relative to vehicle treated control wells. Concentration of compound that inhibits 50% of cell growth (IC50) was interpolated using nonlinear regression (Levenberg-Marquardt) and the equation, y=Vmax*(1−(x/(K+x)))+Y2, where “K” was equal to the IC50.

[7] = tested on: Normal human foreskin fibroblasts (HFF); test: Methylene Blue Cell Growth Inhibition Assay, HFF; format: cell-based; conditions: Fibroblast, 72 h, read-out: MEB HFF IC50
Protocol: as §2

[8] = tested on: H460; test: Methylene Blue Cell Growth Inhibition Assay, H460; format: cell-based; conditions: Homo sapiens, NCI-H460, 72 h, read-out: MEB H460 IC50
Protocol: as §2

| Compound | pIC50 [1] | pIC50 [2] | pIC50 [3] | pIC50 [4] | pIC50 [5] | pIC50 [6] | pIC50 [7] | pIC50 [8] |
| --- | --- | --- | --- | --- | --- | --- | --- | --- |
| C[C@@H](Oc1cc(-n2cnc3cc(-c4ccc(N5CCNCC5)nc4)ccc32)sc1C(N)=O)c1ccccc1C(F)(F)F [Example 1, 5-{5-[6-(1-piperazinyl)-3-pyridinyl]-1H-benzimidazol-1-yl}-3-({(1R)-1-[2-(trifluoromethyl)phenyl]ethyl}oxy)-2-thiophenecarboxamide] | > 7.00 | > 7.00 | 6.00 to 7.00 | 6.00 to 7.00 | 6.00 to 7.00 | 6.00 to 7.00 | < 6.00 | 6.00 to 7.00 |
| C[C@@H](Oc1cc(-n2cnc3cc(-c4ccc(N5CCNCC5)nc4)ccc32)sc1C(N)=O)c1ccccc1Cl [Example 7, 3-{[(1R)-1-(2-Chlorophenyl)ethyl]oxy}-5-{5-[6-(1-piperazinyl)-3-pyridinyl]-1H-benzimidazol-1-yl}-2-thiophenecarboxamide] | > 7.00 | > 7.00 | – | > 7.00 | > 7.00 | – | – | – |
| C[C@@H](Oc1cc(-n2cnc3cc(-c4cnn(C)c4)ccc32)sc1C(N)=O)c1ccccc1Cl [Example 9, 3-{[(1R)-1-(2-Chlorophenyl)ethyl]oxy}-5-[5-(1-methyl-1H-pyrazol-4-yl)-1H-benzimidazol-1-yl]-2-thiophenecarboxamide] | > 7.00 | > 7.00 | > 7.00 | > 7.00 | 6.00 to 7.00 | > 7.00 | 6.00 to 7.00 | > 7.00 |
